For one assay, the system named is S. aureus ATCC29213. In kind it is cell-based, Staphylococcus aureus. Conditions: S. aureus 29213; lowest concentration preventing more than 99.9% growth; 37 °C, 5 h; representative of three trials. The protocol: (§1) Minimal bactericidal concentrations (MBCs) were measured using the method which has been adopted from National Committee for Clinical Laboratory Standards (NCCLS), with modifications. In short, 50 μL peptide solutions were pipetted into microtiter plates at various concentrations ranging from 1 to 128 μM. Freshly grown bacteria were added to the each well in a density of 0.5–1 × 10^6 CFUmL^−1. Microtiter plated was incubated at 37 °C for 5 h. Fifty microliters of each incubation mixture was further serially diluted (up to 10^−3 of the initial bacterial concentration), transferred on agar plates and incubated overnight. On the following day, the number of colonies was evaluated and the initial CFU/well retrospectively calculated. The minimum bactericidal concentrations (μM) were determined as the lowest concentration of the peptides that prevented more than 99.9% bacteria growth.

For assay [1], the system named is E. coli ATCC 25922. In kind it is cell-based, Escherichia coli. Conditions: E. coli 25922; lowest concentration preventing more than 99.9% growth; 37 °C, 5 h; representative of three trials. The procedure: as §1
The next assay has as its system E. coli UB1005. In kind it is cell-based, Escherichia coli. To be noted: E. coli 1005; lowest concentration preventing more than 99.9% growth; 37 °C, 5 h; representative of three trials. The procedure: as §1
For assay [2], the system named is all of the 6 strains tested. The assay can be described thus: Geometric mean of MBCs and therapeutic index, all strains. To be noted: all 6 strains; >128 counted as 256 μM. Type of assay: cell-based. The protocol:
as §1, with “In” for “Minimal bactericidal concentrations (MBCs) were measured using the method which has been adopted from National Committee for Clinical Laboratory Standards (NCCLS), with modifications. In”
(§2) The therapeutic index (TI) is calculated by the ration of the minimum hemolytic concentration (MHC) to the geometric mean of the MBC (GM) to evaluate cell selectivity of peptides.

The test system of assay [3] is 3 gram-positive strains tested. Conditions: 3 gram-positive strains; >128 counted as 256 μM. The procedure:
as §1, with “In” for “Minimal bactericidal concentrations (MBCs) were measured using the method which has been adopted from National Committee for Clinical Laboratory Standards (NCCLS), with modifications. In”
as §2

In the next assay the test system is S. typhimurium ATCC14028. Type of assay: cell-based, Salmonella typhimurium. To be noted: S. typhimurium 14028; lowest concentration preventing more than 99.9% growth; 37 °C, 5 h; representative of three trials. The procedure: as §1
The subject of assay [4] is E. coli ATCC 25922. The assay can be described thus: Flow cytometry, membrane integrity by PI staining. In kind it is cell-based, Escherichia coli. Conditions: peptide at 1 × MBC, PI 10 μg mL^−1, 30 min at 4 °C. The procedure:
The membrane damage was determined by flow cytometry. Briefly, E. coli ATCC 25922 was grown to mid-log phase in MHB at 37 °C, harvested by centrifugation at 1,000 × g for 10 min, washed thrice with PBS and diluted to 10^5 CFU mL^−1 in the same buffer. The peptides at the concentrations of 1 × MBCs were incubated with the bacterial suspension at a fixed PI concentration of 10 μg mL^−1 for 30 min at 4 °C, and followed by the removal of the unbound dye through washing with an excess of PBS. A Fluorescence Activated Cell Sorter (FACS) flow cytometer (Becton–Dickinson, USA) was used to obtain the data with a laser excitation wavelength of 488 nm.
A general note: In flow cytometry, cells or beads pass a laser one at a time.

In assay [5] the test system is 3 gram-negative strains tested. The experiment in a line: Geometric mean of MBCs and therapeutic index, gram-negative strains. In kind it is cell-based. To be noted: 3 gram-negative strains; >128 counted as 256 μM. The protocol:
as §1, with “In” for “Minimal bactericidal concentrations (MBCs) were measured using the method which has been adopted from National Committee for Clinical Laboratory Standards (NCCLS), with modifications. In”
as §2

In brackets after ≈: the same amount, converted by molar mass.

Consider `CC[C@H](C)[C@H](NC(=O)CN)C(=O)NCC(=O)N[C@@H](C)C(=O)N[C@H](C(=O)N[C@@H](CC(C)C)C(=O)N[C@@H](CCCCN)C(=O)N[C@H](C(=O)N[C@@H](CC(C)C)C(=O)N[C@H](C(=O)N[C@H](C(=O)NCC(=O)N[C@@H](CC(C)C)C(=O)N1CCC[C@H]1C(=O)N[C@@H](C)C(=O)N[C@@H](CC(C)C)C(=O)N[C@H](C(=O)N[C@@H](CO)C(=O)N[C@@H](Cc1c[nH]c2ccccc12)C(=O)N[C@H](C(=O)N[C@@H](CCCCN)C(=O)N[C@@H](CCCNC(=N)N)C(=O)N[C@@H](CCCCN)C(=O)N[C@@H](CCCNC(=N)N)C(=O)N[C@@H](CCC(N)=O)C(=O)N[C@@H](CCC(N)=O)C(N)=O)[C@@H](C)CC)[C@@H](C)CC)[C@@H](C)O)[C@@H](C)O)C(C)C)C(C)C` [Melittin, reference compound], for which the Minimum bactericidal concentration came to 8 µM (≈ 22.8 µg/mL) in the assay with S. aureus ATCC29213, 2 µM (≈ 5.69 µg/mL) with E. coli ATCC 25922 [1], 2 µM (≈ 5.69 µg/mL) in the assay on E. coli UB1005 and 2 µM (≈ 5.69 µg/mL) in the assay on S. typhimurium ATCC14028. Besides, in assay [2], the “GM (geometric mean of MBCs), Gram (+, −)” value was 2 µM. For the same compound, the “GM (geometric mean of MBCs), Gram (+)” value in assay [3] is 2 µM. The “percentage of PI-positive cells” value in the assay on E. coli ATCC 25922 [4] worked out at 99.0%. The “GM (geometric mean of MBCs), Gram (−)” value in assay [5] is 2 µM.

The values above are taken from paper PMC4632126, “High specific selectivity and Membrane-Active Mechanism of the synthetic centrosymmetric α-helical peptides with Gly-Gly pairs” (Scientific Reports, 2015).
